How the values were obtained:
[1] = design: method as in PMID 20661827; conditions: cited from earlier work
[2] = Breath limonene by selected ion flow tube mass spectrometry (SIFT-MS), one 15 s exhalation; assay type: in vivo; conditions: unpublished data
[3] = design: method as in PMID 9682146, PMID 9654110; conditions: after oral administration; cited from earlier work
[4] = Limonene exhalation kinetics in breath (Breath Biopsy, GC-MS) after ingestion of 100 mg limonene; conditions: for Cmax (ng) median [IQR]: 100 mg limonene oral, overnight fast
[5] = design: method as in PMID 30845345; conditions: mice; oral and inhalation intake; within 30 min post administration; cited from earlier work

C=C(C)[C@H]1CC=C(C)CC1 [limonene]
Average increase in adipose tissue ([1]; after 4 weeks of continuous exposure): 44 fold | Accumulation in adipose tissue ([1]; after a single dose): no accumulation | Breath levels of limonene before administration [2]: a few | Increase of breath limonene after administration vs before [2]: > 1000 fold | Breath levels of limonene after administration ([2]; up to): 5–10 PPM | Distribution volume [3]: greater than total body water | Limonene spike in breath after administration compared to baseline ([4]; all subjects, 100 mg limonene): > 100 fold | Slope (rate of elimination) ([4]; breath, semi-logarithmic scale, control group): −0.027 [−0.031–−0.023] | AUC (0–90 min) median [IQR] ([4]; breath, cirrhosis group): 121,437 [57,921–202,733] ng × min/400 mL | Cmax (ng) median [IQR] ([4]; breath, cirrhosis group): 2077 [1051–4260] ng | AUC (0–90 min) median [IQR] ([4]; breath, control group): 27,107 [17,605–34,946] ng × min/400 mL | Cmax (ng) median [IQR] ([4]; breath, control group): 595 [361–903] ng | Cmax ([4]; case report subject DYL10297 (enrolled as control, suspected mild chronic liver disease), at 40 min): 2421 ng | Organ distribution [5]: majority of limonene found in the liver

From publication PMC10669625 (Biomedicines, 2023)
